From patent US20240216392A1, “METHODS OF TREAMENT” (Arena Pharmaceuticals, Inc., priority 2022, published 2024)
Where two headings read alike, the source gives them in different places.

Tests used:
[1] = for CSF AUCtau, geometric mean (geometric CV %) / CSF Cavg, geometric mean (geometric CV %) / CSF Cmax, geometric mean (geometric CV %) / CSF Ctrough, geometric mean (geometric CV %): Day 11
[2] = tested on: UGT metabolic pathway and renal transporters; settings: single 12 mg dose with probenecid/cimetidine vs alone
serum prolactin = serum prolactin pharmacodynamics, Phase 1 study; format: in vivo, human
Protocol: The PD parameters listed in Table 13 were derived for serum prolactin based on actual times and were calculated using noncompartmental analysis (NCA) methods, as data permitted.

[3] = safety and tolerability, Phase 1 study; format: in vivo, human
Protocol: (§1) For Cohorts 1 and 2, the study consisted of a Screening period (Day −28 to −2), an on-site period from Day −1 to Day 16 and a 10-day postdosing follow-up visit (Day 25). Subjects were admitted to the clinic on Day −1 of the assessment period and remained confined to the clinic until completion of the assessment period (or longer if the Investigator deemed it is clinically indicated for safety follow-up). Safety was assessed continuously from signing of informed consent form through follow up visit. Safety assessments including cardiac troponins, vital signs, 12-lead ECGs (electrocardiograms) were performed at screening and daily from Day −1 to Day 16, and follow-up. C-SSRS (Columbia-suicide severity rating scale) was assessed at screening, Days −1, 11, 16, and 25.
as §1, with “all cohorts,” for “Cohorts 1 and 2,”, “Safety assessments including cardiac troponins, vital signs, 12-lead ECGs (electrocardiograms) were performed at screening and daily from Day −1 to Day 16, and follow-up.” left out

plasma protein = test: clinical; settings: human, oral

C[C@H]1CN2CCNCc3ccc(C(=O)NCC(F)F)c1c32 [Compound 1, (R)—N-(2,2-difluoroethyl)-7-methyl-1,2,3,4,6,7-hexahydro-[1,4]diazepino[6,7,1-hi]indole-8-carboxamide]
CSF concentrations exceeding the relevant Ki for 5-HT2C agonism ([1]; Cohort 2 (12 mg TID) and Cohort 4B (18 mg BID)): ~2 fold | CSF AUCtau, geometric mean (geometric CV %) ([1]; Cohort 1 (6 mg TID)): 72.07 (25.7) h*ng/mL | CSF Cavg, geometric mean (geometric CV %) ([1]; Cohort 1 (6 mg TID)): 9.261 (2.2660) ng/mL | CSF Cmax, geometric mean (geometric CV %) ([1]; Cohort 1 (6 mg TID)): 11.88 (28.1) ng/mL | CSF Ctrough, geometric mean (geometric CV %) ([1]; Cohort 1 (6 mg TID)): 6.524 (1.8619) ng/mL | CSF AUCtau, geometric mean (geometric CV %) ([1]; Cohort 2 (12 mg TID)): 167.4 (60.3) h*ng/mL | CSF Cavg, geometric mean (geometric CV %) ([1]; Cohort 2 (12 mg TID)): 24.61 (18.535) ng/mL | CSF Cmax, geometric mean (geometric CV %) ([1]; Cohort 2 (12 mg TID)): 26.21 (57.4) ng/mL | CSF Ctrough, geometric mean (geometric CV %) ([1]; Cohort 2 (12 mg TID)): 18.69 (12.398) ng/mL | CSF AUCtau, geometric mean (geometric CV %) ([1]; Cohort 3 (12 mg BID)): 157.9 (34.0) h*ng/mL | CSF Cavg, geometric mean (geometric CV %) ([1]; Cohort 3 (12 mg BID)): 13.76 (4.0021) ng/mL | CSF Cmax, geometric mean (geometric CV %) ([1]; Cohort 3 (12 mg BID)): 21.34 (33.5) ng/mL | CSF Ctrough, geometric mean (geometric CV %) ([1]; Cohort 3 (12 mg BID)): 7.027 (3.2364) ng/mL | CSF AUCtau, geometric mean (geometric CV %) ([1]; Cohort 4A (15 mg BID)): 171.2 (25.4) h*ng/mL | CSF Cavg, geometric mean (geometric CV %) ([1]; Cohort 4A (15 mg BID)): 14.63 (3.7448) ng/mL | CSF Cmax, geometric mean (geometric CV %) ([1]; Cohort 4A (15 mg BID)): 24.27 (32.3) ng/mL | CSF Ctrough, geometric mean (geometric CV %) ([1]; Cohort 4A (15 mg BID)): 6.512 (1.3508) ng/mL | CSF AUCtau, geometric mean (geometric CV %) ([1]; Cohort 4B (18 mg BID)): 202.5 (30.1) h*ng/mL | CSF Cavg, geometric mean (geometric CV %) ([1]; Cohort 4B (18 mg BID)): 17.51 (5.7327) ng/mL | CSF Cmax, geometric mean (geometric CV %) ([1]; Cohort 4B (18 mg BID)): 30.05 (20.9) ng/mL | CSF Ctrough, geometric mean (geometric CV %) ([1]; Cohort 4B (18 mg BID)): 7.700 (3.5802) ng/mL | safety and tolerability (CYP3A4, CYP2D6, P-gp; alone or in combination with other probe substrates): safe and generally well-tolerated | substrate for CYP3A4, CYP2D6 or P-gp (CYP3A4, CYP2D6, P-gp; lack of effect of quinidine on exposure): not a substrate for CYP3A4, CYP2D6, or P-gp | increase in Compound 1 exposure [2]: ~80% | Serum prolactin AUEC, Change From Baseline, geometric mean (serum prolactin; Day 1, Cohort 1 (3 mg doses)): 13.2 ng·h/mL | Serum prolactin AUEC, Raw, geometric mean (serum prolactin; Day 1, Cohort 1 (3 mg doses)): 95.0 ng·h/mL | Serum prolactin Emax, Change From Baseline, geometric mean (serum prolactin; Day 1, Cohort 1 (3 mg doses)): 6.6 ng/mL | Serum prolactin Emax, Raw, geometric mean (serum prolactin; Day 1, Cohort 1 (3 mg doses)): 17.8 ng/mL | Serum prolactin Tmax, Raw, median (serum prolactin; Day 1, Cohort 1 (3 mg doses)): 7.84 h | Serum prolactin AUEC, Change From Baseline, geometric mean (serum prolactin; Day 1, Cohort 2 (6 mg doses)): 16.3 ng·h/mL | Serum prolactin AUEC, Raw, geometric mean (serum prolactin; Day 1, Cohort 2 (6 mg doses)): 82.5 ng·h/mL | Serum prolactin Emax, Change From Baseline, geometric mean (serum prolactin; Day 1, Cohort 2 (6 mg doses)): 4.4 ng/mL | Serum prolactin Emax, Raw, geometric mean (serum prolactin; Day 1, Cohort 2 (6 mg doses)): 13.9 ng/mL | Serum prolactin Tmax, Raw, median (serum prolactin; Day 1, Cohort 2 (6 mg doses)): 2.01 h | Serum prolactin AUEC, Change From Baseline, geometric mean (serum prolactin; Day 1, Cohort 3 (6 mg doses)): 15.0 ng·h/mL | Serum prolactin AUEC, Raw, geometric mean (serum prolactin; Day 1, Cohort 3 (6 mg doses)): 93.6 ng·h/mL | Serum prolactin Emax, Change From Baseline, geometric mean (serum prolactin; Day 1, Cohort 3 (6 mg doses)): 5.8 ng/mL | Serum prolactin Emax, Raw, geometric mean (serum prolactin; Day 1, Cohort 3 (6 mg doses)): 16.4 ng/mL | Serum prolactin Tmax, Raw, median (serum prolactin; Day 1, Cohort 3 (6 mg doses)): 1.56 h | Serum prolactin AUEC, Change From Baseline, geometric mean (serum prolactin; Day 1, Cohort 4A (6 mg doses)): 12.7 ng·h/mL | Serum prolactin AUEC, Raw, geometric mean (serum prolactin; Day 1, Cohort 4A (6 mg doses)): 99.6 ng·h/mL | Serum prolactin Emax, Change From Baseline, geometric mean (serum prolactin; Day 1, Cohort 4A (6 mg doses)): 9.1 ng/mL | Serum prolactin Emax, Raw, geometric mean (serum prolactin; Day 1, Cohort 4A (6 mg doses)): 21.5 ng/mL | Serum prolactin Tmax, Raw, median (serum prolactin; Day 1, Cohort 4A (6 mg doses)): 2.01 h | Serum prolactin AUEC, Raw, geometric mean (serum prolactin; Day 1, Cohort 4B (6 mg doses)): 80.4 ng·h/mL | Serum prolactin Emax, Change From Baseline, geometric mean (serum prolactin; Day 1, Cohort 4B (6 mg doses)): 4.2 ng/mL | Serum prolactin Emax, Raw, geometric mean (serum prolactin; Day 1, Cohort 4B (6 mg doses)): 15.6 ng/mL | Serum prolactin Tmax, Raw, median (serum prolactin; Day 1, Cohort 4B (6 mg doses)): 0.48 h | Serum prolactin AUEC, Change From Baseline, geometric mean (serum prolactin; Day 10, Cohort 1 (6 mg TID)): 20.7 ng·h/mL | Serum prolactin AUEC, Raw, geometric mean (serum prolactin; Day 10, Cohort 1 (6 mg TID)): 92.4 ng·h/mL | Serum prolactin Emax, Change From Baseline, geometric mean (serum prolactin; Day 10, Cohort 1 (6 mg TID)): 6.0 ng/mL | Serum prolactin Emax, Raw, geometric mean (serum prolactin; Day 10, Cohort 1 (6 mg TID)): 16.2 ng/mL | Serum prolactin Tmax, Raw, median (serum prolactin; Day 10, Cohort 1 (6 mg TID)): 3.00 h | Serum prolactin AUEC, Change From Baseline, geometric mean (serum prolactin; Day 10, Cohort 2 (12 mg TID)): 14.4 ng·h/mL | Serum prolactin AUEC, Raw, geometric mean (serum prolactin; Day 10, Cohort 2 (12 mg TID)): 92.0 ng·h/mL | Serum prolactin Emax, Change From Baseline, geometric mean (serum prolactin; Day 10, Cohort 2 (12 mg TID)): 5.8 ng/mL | Serum prolactin Emax, Raw, geometric mean (serum prolactin; Day 10, Cohort 2 (12 mg TID)): 16.0 ng/mL | Serum prolactin Tmax, Raw, median (serum prolactin; Day 10, Cohort 2 (12 mg TID)): 7.84 h | Serum prolactin AUEC, Change From Baseline, geometric mean (serum prolactin; Day 10, Cohort 3 (12 mg BID)): 13.5 ng·h/mL | Serum prolactin AUEC, Raw, geometric mean (serum prolactin; Day 10, Cohort 3 (12 mg BID)): 99.9 ng·h/mL | Serum prolactin Emax, Change From Baseline, geometric mean (serum prolactin; Day 10, Cohort 3 (12 mg BID)): 7.2 ng/mL | Serum prolactin Emax, Raw, geometric mean (serum prolactin; Day 10, Cohort 3 (12 mg BID)): 18.2 ng/mL | Serum prolactin Tmax, Raw, median (serum prolactin; Day 10, Cohort 3 (12 mg BID)): 1.01 h | Serum prolactin AUEC, Raw, geometric mean (serum prolactin; Day 10, Cohort 4A (15 mg BID)): 84.3 ng·h/mL | Serum prolactin Emax, Change From Baseline, geometric mean (serum prolactin; Day 10, Cohort 4A (15 mg BID)): 4.7 ng/mL | Serum prolactin Emax, Raw, geometric mean (serum prolactin; Day 10, Cohort 4A (15 mg BID)): 14.7 ng/mL | Serum prolactin Tmax, Raw, median (serum prolactin; Day 10, Cohort 4A (15 mg BID)): 2.00 h | Serum prolactin AUEC, Change From Baseline, geometric mean (serum prolactin; Day 10, Cohort 4B (18 mg BID)): 17.8 ng·h/mL | Serum prolactin AUEC, Raw, geometric mean (serum prolactin; Day 10, Cohort 4B (18 mg BID)): 99.4 ng·h/mL | Serum prolactin Emax, Change From Baseline, geometric mean (serum prolactin; Day 10, Cohort 4B (18 mg BID)): 8.1 ng/mL | Serum prolactin Emax, Raw, geometric mean (serum prolactin; Day 10, Cohort 4B (18 mg BID)): 16.7 ng/mL | Serum prolactin Tmax, Raw, median (serum prolactin; Day 10, Cohort 4B (18 mg BID)): 1.10 h | safety and tolerability ([3]; Cohorts 1 and 2): Favorable safety and tolerability results | safety and tolerability ([3]; all cohorts): Favorable safety and tolerability results | fraction unbound at 11 day (plasma protein; 6 mg, Day 11, Cohort 1 (6 mg TID)): 0.969 | fraction unbound at 11 day (plasma protein; 12 mg, Day 11, Cohort 2 (12 mg TID)): 0.968 | fraction unbound at 11 day (plasma protein; 12 mg, Day 11, Cohort 3 (12 mg BID)): 0.93 | fraction unbound at 11 day (plasma protein; 15 mg, Day 11, Cohort 4A (15 mg BID)): 0.913 | fraction unbound at 11 day (plasma protein; 18 mg, Day 11, Cohort 4B (18 mg BID)): 0.926
